Laboratory results reported in patent US9526699B2, “Biodegradable and thermosensitive poly(organophosphazene) hydrogel, preparation method thereof and use thereof” (KIST, priority 2006, dated 2016).

Columns and labels:
[1] = target: T1, albumin (Bovin Serum Albumin; BSA) (Bos taurus, UniProt P02769); assay: Gel electrophoresis for ionic bond between additives and protein drug; type: binding; settings: additive at various concentrations in 0.01% albumin solution
T1 construct: purchased Wako chemical
Procedure: Each of them was added to 0.01% albumin solution (Bovin Serum Albumin; BSA, Wako chemical) at various concentrations and sufficiently stirred. After holding for 20 minutes, an electrophoresis for each of the obtained solutions was conducted through polyacrylamide gel.

[2] = test system: Cells of stomach cancer, SNU-601; assay: In vivo anti-cancer activity of the poly(organophosphazene) hydrogel containing paclitaxel; design: species or system nude mouse; settings: 60 mg/kg, day 10 after administration, ten mice per group
Procedure: A nude mouse (OrientalBio, Balb/C, female of 5-weeks old, 20 g) was used as an animal model for animal experimentation for an in vivo test. Cells of stomach cancer, SNU-601 (1×10^7 cells, 0.2 ml, Korean Cell Line Bank), were injected into the dorsum of the mouse. […] 0.2 ml of the solution was injected into the cancer cells, and the change in the size of the cells was measured.
Each test was conducted for ten (10) mice for each of the control groups and the experimental groups.

T1 sequence (P02769 25-607): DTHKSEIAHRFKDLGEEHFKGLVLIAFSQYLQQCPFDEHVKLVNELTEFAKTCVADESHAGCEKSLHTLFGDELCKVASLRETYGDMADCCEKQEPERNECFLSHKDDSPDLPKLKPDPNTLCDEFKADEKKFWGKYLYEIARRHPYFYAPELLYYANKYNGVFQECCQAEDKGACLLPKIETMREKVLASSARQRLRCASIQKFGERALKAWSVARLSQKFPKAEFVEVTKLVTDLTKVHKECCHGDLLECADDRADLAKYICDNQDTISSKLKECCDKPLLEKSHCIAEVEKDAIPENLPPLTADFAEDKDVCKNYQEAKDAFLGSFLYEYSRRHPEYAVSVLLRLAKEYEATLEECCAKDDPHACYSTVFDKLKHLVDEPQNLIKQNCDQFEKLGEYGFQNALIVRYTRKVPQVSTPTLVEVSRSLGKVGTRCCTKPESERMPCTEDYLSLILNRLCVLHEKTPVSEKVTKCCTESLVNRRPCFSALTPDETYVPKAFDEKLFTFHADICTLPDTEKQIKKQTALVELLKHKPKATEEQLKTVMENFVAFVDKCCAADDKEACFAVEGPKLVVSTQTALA

Compound: protamine
- development property in polyacrylamide gel (ionic bond with albumin) [1]: worse development property of the gel as the concentration of the additive is higher

Compound: CC(=O)O[C@H]1C(=O)[C@@]2(C)[C@H]([C@H](OC(=O)c3ccccc3)[C@]3(O)C[C@H](OC(=O)[C@H](O)[C@@H](NC(=O)c4ccccc4)c4ccccc4)C(C)=C1C3(C)C)[C@]1(OC(C)=O)CO[C@@H]1C[C@@H]2O [Paclitaxel, paclitaxel]
- mice died due to toxicity [2]: 8 mice
